Experimental data as given in PMC6270601, “Dimeric Labdane Diterpenes: Synthesis and Antiproliferative Effects” (Molecules, 2013).

Legend:
Type in all cases: cell-based, human
HL-60 cells = assay: Antiproliferative assay (MTT reduction), HL-60 promyelocytic leukemia cells; conditions: for IC50: Homo sapiens, 72 h, HL-60 promyelocytic leukemia, 3 days treatment, MTT reduction, mean ± SD, >100 µM considered inactive; for antiproliferative activity against HL-60 (in words): up to 100 µM
Protocol: (§1) All human cell lines used in this work were purchased from the American Type Culture Collection (ATCC, Manasas, VA, USA). […] Promyelocytic leukemia HL-60 cells (CCL-240) were grown in suspension in RPM1 medium containing 1 mM sodium pyruvate and 2.0 g/L sodium bicarbonate. All media were supplemented with 10% heat-inactivated FBS, 100 IU/mL penicillin and 100 µg/mL streptomycin. Cells were grown in a humidified incubator with 5% CO2 in air at 37 °C. For the antiproliferative assay, adherent cells were plated at a density of 5 × 10^4 cells/mL and HL-60 cells at 30 × 10^4 cells/mL. Cells were seeded in 96-well plates (100 µL/well). One day after seeding, cells were treated with medium containing the compounds at concentrations ranging from 0 up to 100 µM during 3 days. The compounds were dissolved in DMSO (1% final concentration) and complete medium. Untreated cells (medium containing 1% DMSO) were used as 100% viability controls. […] Each concentration was tested in sextuplicate and experiments were repeated 2 times. Cell viability was determined by means of the MTT reduction assay at the end of the incubation with the products.

AGS cells = assay: Antiproliferative assay (MTT reduction), AGS gastric adenocarcinoma cells; conditions: for IC50: Homo sapiens, 72 h, AGS gastric adenocarcinoma, 3 days treatment, MTT reduction, mean ± SD, >100 µM considered inactive; for antiproliferative activity against AGS (in words): up to 100 µM
Protocol: The compounds 1–20 were assessed for antiproliferative effect towards human lung fibroblasts (MRC-5) and the following human tumor cell lines: gastric adenocarcinoma (AGS), lung cancer cells (SK-MES-1), bladder carcinoma (J82) and promyelocytic leukemia (HL-60).
All human cell lines used in this work were purchased from the American Type Culture Collection (ATCC, Manasas, VA, USA). Normal lung MRC-5 fibroblasts (CCL-171), SK-MES-1 lung cancer cells (HTB-58) and J82 bladder carcinoma cells (HTB-1) were grown as monolayers in minimum essential Eagle medium (MEM) with Earles’s salts, 2 mM L-glutamine and 1.5 g/L sodium bicarbonate. Gastric adenocarcinoma AGS cells (CRL-1739) were grown as monolayers in Ham F-12 medium containing 1 mM L-glutamine and 1.5 g/L sodium bicarbonate. Promyelocytic leukemia HL-60 cells (CCL-240) were grown in suspension in RPM1 medium containing 1 mM sodium pyruvate and 2.0 g/L sodium bicarbonate. All media were supplemented with 10% heat-inactivated FBS, 100 IU/mL penicillin and 100 µg/mL streptomycin. Cells were grown in a humidified incubator with 5% CO2 in air at 37 °C. For the antiproliferative assay, adherent cells were plated at a density of 5 × 10^4 cells/mL and HL-60 cells at 30 × 10^4 cells/mL. Cells were seeded in 96-well plates (100 µL/well). One day after seeding, cells were treated with medium containing the compounds at concentrations ranging from 0 up to 100 µM during 3 days. The compounds were dissolved in DMSO (1% final concentration) and complete medium. Untreated cells (medium containing 1% DMSO) were used as 100% viability controls. […] Each concentration was tested in sextuplicate and experiments were repeated 2 times. Cell viability was determined by means of the MTT reduction assay at the end of the incubation with the products. The results were transformed to percentage of controls and the IC50 values were graphically obtained from the dose-response curves.

[1] = system: J82 bladder carcinoma cells; assay: Antiproliferative assay (MTT reduction), J82 bladder carcinoma cells; conditions: for IC50: Homo sapiens, 72 h, J82 bladder carcinoma, 3 days treatment, MTT reduction, mean ± SD, >100 µM considered inactive; for antiproliferative activity against J82 (in words): up to 100 µM
Protocol: as §1

MRC-5 normal fibroblasts = assay: Antiproliferative assay (MTT reduction), MRC-5 normal lung fibroblasts; conditions: for IC50: Homo sapiens, MRC5, 72 h, MRC-5 normal fibroblasts, 3 days treatment, MTT reduction, mean ± SD, >100 µM considered inactive; for antiproliferative activity against MRC-5 (in words): up to 100 µM
Protocol: as §1

[2] = system: SK-MES-1 lung cancer cells; assay: Antiproliferative assay (MTT reduction), SK-MES-1 lung cancer cells; conditions: for IC50: Homo sapiens, 72 h, SK-MES-1 lung cancer cells, 3 days treatment, MTT reduction, mean ± SD, >100 µM considered inactive; for antiproliferative activity against SK-MES-1 (in words): up to 100 µM
Protocol: as §1

IC50 (HL-60 cells) [µM]	IC50 (AGS cells) [µM]	IC50 [1] [µM]	IC50 [2] [µM]	SMILES	IC50 (MRC-5 normal fibroblasts) [µM]	antiproliferative activity against HL-60 (in words) (HL-60 cells)	antiproliferative activity against AGS (in words) (AGS cells)	antiproliferative activity against J82 (in words) [1]	antiproliferative activity against MRC-5 (in words) (MRC-5 normal fibroblasts)	antiproliferative activity against SK-MES-1 (in words) [2]
32.6 ± 2.3	17.8 ± 1.3	> 100	67.5 ± 6.9	C=C1CCC2[C@](C)(CCC[C@]2(C)C(=O)OC)[C@H]1CC[C@@H](C)CCOCCCCCOCC[C@H](C)CC[C@H]1C(=C)CCC2[C@]1(C)CCC[C@]2(C)C(=O)OC (stereo partly shown) [Compound 9]	68.1 ± 3.4	–	–	–	–	–
48.9 ± 4.5	54.8 ± 3.3	56.2 ± 3.9	57.2 ± 3.4	C=C1CCC2[C@](C)(CCC[C@]2(C)C(=O)OC)[C@H]1CC[C@@H](C)CCn1cc(CCO)nn1 (stereo partly shown) [Compound 5, 15-(4-(2-Hydroxyethyl)-1H-1,2,3-triazol-1-yl)-imbricatolic acid methyl ester]	75.8 ± 5.3	–	–	–	–	–
> 100	> 100	> 100	> 100	C=C1CCC2[C@](C)(CCC[C@]2(C)C(=O)OC)[C@H]1CC[C@@H](C)CCn1cc(COC(=O)C[C@H](C)CC[C@H]2C(=C)CCC3[C@]2(C)CCC[C@]3(C)C(=O)OC)nn1 (stereo partly shown) [Compound 16]	> 100	–	–	–	–	–
47.5 ± 3.9	38.5 ± 1.6	63.7 ± 2.6	59.7 ± 2.4	C=C1CCC2[C@](C)(CCC[C@]2(C)C(=O)OC)[C@H]1CC[C@@H](C)CCO (stereo partly shown) [Compound 1, 15-Hydroxyimbricatolic acid methyl ester]	77.7 ± 4	–	–	–	–	–
> 100	> 100	61.4 ± 3.1	38.5 ± 2.8	C=C1CCC2[C@](C)(CCC[C@]2(C)C(=O)OC)[C@H]1CC[C@@H](C)CCOC(=O)C[C@H](C)CC[C@H]1C(=C)CCC2[C@]1(C)CCC[C@]2(C)C(=O)OC (stereo partly shown) [Compound 12]	> 100	devoid of activity	devoid of activity	showed effect	devoid of activity	showed effect
44.1 ± 4.1	39.4 ± 2.4	84.7 ± 6.8	56 ± 4.5	C=C1CCC2[C@](C)(CCC[C@]2(C)C(=O)O)[C@H]1CC[C@@H](C)CC(=O)OCc1cn(CC[C@H](C)CC[C@H]2C(=C)CCC3[C@]2(C)CCC[C@]3(C)C(=O)OC)nn1 (stereo partly shown) [Compound 15]	> 100	–	–	–	–	–
22.3 ± 3.1	73.8 ± 5.2	> 100	67.6 ± 3.4	C=C1CCC2[C@](C)(CCC[C@]2(C)C(=O)OC)[C@H]1CC[C@@H](C)CCN=[N+]=[N-] (stereo partly shown) [Compound 3, 15-Azidoimbricatolic acid methyl ester]	91.8 ± 6.4	–	–	–	–	–
23.2 ± 3.1	23.4 ± 1.4	34.6 ± 2.5	67.5 ± 4.9	C=C1CCC2[C@](C)(CCC[C@]2(C)C(=O)O)[C@H]1CC[C@@H](C)CC(=O)OCCc1cn(CC[C@H](C)CC[C@H]2C(=C)CCC3[C@]2(C)CCC[C@]3(C)C(=O)OC)nn1 (stereo partly shown) [Compound 17]	79.6 ± 5.1	–	–	–	–	–
–	0.58 ± 0.02	–	–	COc1cc([C@@H]2c3cc4c(cc3[C@@H](O[C@@H]3O[C@@H]5CO[C@@H](C)O[C@H]5[C@H](O)[C@H]3O)[C@H]3COC(=O)[C@H]23)OCO4)cc(OC)c1O [Etoposide, reference compound]	–	–	–	–	–	–
> 100	> 100	> 100	67.9 ± 5.4	C=C1CCC2[C@](C)(CCC[C@]2(C)C(=O)OC)[C@H]1CC[C@@H](C)CCOCCCCCCCCCOCC[C@H](C)CC[C@H]1C(=C)CCC2[C@]1(C)CCC[C@]2(C)C(=O)OC (stereo partly shown) [Compound 10]	> 100	–	–	–	–	–
80.3 ± 5.9	26.1 ± 2.2	> 100	> 100	C=C1CCC2[C@](C)(CCC[C@]2(C)C(=O)O)[C@H]1CC[C@@H](C)CC(=O)OCC[C@H](C)CC[C@H]1C(=C)CCC2[C@]1(C)CCC[C@]2(C)C(=O)OC (stereo partly shown) [Compound 11]	71.2 ± 5.3	showed activity	showed activity	not against SK-MES-1 and J82 cells	showed activity	not against SK-MES-1 and J82 cells
